As usually defined, the melting point is the temperature, or range, at which the solid turns liquid.

In turn, `COC(=O)COC(=O)C(c1ccccc1)N1CCN(c2ccc(NC(=O)c3ccccc3-c3ccc(C(F)(F)F)cc3)cc2)CC1` (stereo unspecified) had a melting point of 106 °C. Turning to `CCOC(=O)Nc1cc(COC(=O)Oc2ccc(N(CCCl)CCCl)cc2)cc(Nc2c3ccccc3nc3ccccc23)c1`, the melting point lay within 131 to 133 °C.

`COc1cc(Nc2c(C#N)cnc3cc(C#Cc4cccnc4)sc23)c(Cl)cc1Cl` gave a melting point of 249 to 250 °C. The result for `CC1(C)CCC2=C(C1=O)C(c1ccc(F)c(Br)c1)C1=C(COCC1=O)N2` (stereo unspecified) reads over 260 °C; that for `Cc1ccc(Oc2ccc(NC(=O)Nc3cc(C(C)(C)C)n[nH]3)cc2)cc1`, 204 °C. In turn, `O=C(c1ccccc1)N(CCCCn1ccnc1)C1=Nc2cccc3cccc1c23` gave a melting point of 139 to 140 °C. The same measure for `CCSc1nc2c(C(=S)OC)sc(C)c2[nH]1`: 170 to 172 °C; for `CC(C)n1nc(-c2c(-c3ccccc3)nc(N)nc2N2CCOCC2)ccc1=O`: 251 to 253 °C; for `CC(C)(C)OC(=O)C=Cc1ccc(C(=O)C(=C(F)F)c2ccccc2)cc1`: 88 to 94 °C. Regarding `C=CCN1C(=O)C[N+]([O-])=C(c2ccccc2F)c2cc(Cl)ccc21`, the melting point worked out at 183 °C. The same measure for `Cc1cc(-c2[nH]nc3c2C(=O)c2c(NC(N)=O)cccc2-3)c(C)s1`: over 280 °C. `N#CC1(CCCCCCCCCCCCC2(C#N)CC2)CC1` gave a melting point of 45 to 46.9 °C. The result for `COC(=O)N1Cc2nc(C(=O)O)cn2-c2ccccc21` reads 204 to 208 °C; that for `Cc1cc(C)nc(NC2CCC(CCN3CCN(c4ccccc4)CC3)CC2)n1` (stereo unspecified), 127 to 129 °C; that for `N#Cc1ccc(NCC(=O)N2CCC(Cc3ccc(F)cc3)CC2)cc1`, 204 to 206 °C. The result for `N#Cc1nn(-c2c(Cl)cc(C(F)(F)F)cc2Cl)c(N)c1-c1cc(Cl)cc(Cl)c1` reads 228 to 230 °C; that for `N#CNC(=NCCN)NC1CCCC(c2csc(NC(=N)N)n2)C1` (stereo unspecified), 203 to 205 °C.

`CC(C)n1nc(-c2ccc(O)cc2)c2cccc(C(F)(F)F)c21`: the melting point lay in the range of 156 to 157 °C.

`CCOC(=O)c1c(N)c(Br)cc2c1OCO2` displayed a melting point of 81 to 83 °C. As to `Cc1cc(-c2ccc(C(F)(F)F)cc2)cn2c(-c3nc(-c4ccnc(N)c4)no3)cnc12`, the melting point was found to be 264 °C.

`CN1Cc2c(C#N)ncn2-c2ccc(F)c(Cl)c2C1=O` gave a melting point of 221 to 223 °C.

The compound `COc1ccc(C=C(C(C)=O)C(C)=O)cc1` registered a melting point of 70 to 72 °C. The result for `CC(C)(C)C(=O)OCNc1nc(OCc2ccc(F)cc2)ncc1F` reads 134 to 135 °C; that for `Cc1ccc(S(=O)(=O)NC(=O)OCCc2ccc(-n3c(CCCN4CCCC4=O)nc4cc(C(F)(F)F)c(Cl)cc43)cc2)cc1`, 85 to 90 °C; that for `CC(=O)c1ccc(OCC(O)COc2ccccc2)cc1O` (stereo unspecified), 63 to 65 °C.

As for `CCOC(=O)C1=CN(CC)c2cc(C#N)c(F)cc2C1`, the melting point fell in the range of 205 to 207 °C.

On to `Cc1oc(-c2ccccc2)nc1COc1cccc([N+](=O)[O-])c1`, for which the melting point lay within 106 to 107 °C. For the compound `COc1cc2c(cc1OC)C(=O)C(C)C(C)O2` (stereo unspecified), the melting point lay in the range of 171 to 172 °C. The result for `Oc1ccc2c(c1)C[C@@H](NC[C@H](O)c1ccc(OCc3ccccc3)c(CCOCc3ccccc3)c1)CC2` reads 147 to 150 °C. The same measure for `O=C(NC(=CC(=O)[C@H](Cc1ccccc1)N(Cc1ccccc1)Cc1ccccc1)Cc1ccccc1)c1ccccc1`: 131 to 133 °C; for `CC(C)(C)C(F)(F)c1ccc(C[C@@H](NC(=O)c2ccc(F)c3ccccc23)[C@@H](O)c2cccc(Cl)c2)cc1` (racemic): 104 to 106 °C. The same measure for `CCCCCCCNC(=O)Nc1ccc(OCC)cc1C(=O)NCC1CCN(C(c2ccccc2)c2ccccc2)CC1`: 188 to 189 °C; for `O=C(Oc1ccc([N+](=O)[O-])cc1)Oc1ccc2oc3ccccc3c2c1`: 183 to 185 °C; for `CNc1cccc([N+](=O)[O-])c1N`: 93 °C. In turn, `CCOC(=O)CC(=O)c1cc(F)c(OP(=O)(Oc2ccccc2)Oc2ccccc2)nc1Nc1ccc(F)cc1F` returned a melting point of 85 to 86 °C.

Take `O=C(O)[C@@H]1C[C@@H](O)CN1S(=O)(=O)c1ccc2ccccc2c1`: the melting point turned out to be 140 °C.

On to `O=[N+]([O-])c1ccc(OCCc2ccc(CO)cn2)cc1`, for which the melting point fell in the range of 144 to 145 °C. The same measure for `COc1ccc(C(F)(F)F)cc1-c1cccn2nc(Nc3ccc4c(c3)CCN(C(=O)OC(C)(C)C)C4)nc12`: 86 to 90 °C. The result for `Cc1ccn(-c2ccc(C)c(C(=O)c3cccc4c3Nc3ncccc3CN4)c2)n1` reads 138 to 140 °C; that for `CC(C)(C)Sc1cccc(C(F)(F)F)c1S(N)(=O)=O`, 91 °C; that for `Cn1nc(Cl)n(-c2ccccc2CBr)c1=O`, 132 to 133 °C. As for `C[C@@H](n1cnc2cc(-c3ccc(C(=N)NCCN)cc3)sc2c1=O)[C@](O)(Cn1cncn1)c1ccc(F)cc1F`, the melting point was in the range of 154 to 161 °C. The compound `N#Cc1cccc2c1COc1ccc(OCc3ccc4cc(F)c(Cl)cc4n3)cc1C2SCCC(=O)O` (stereo unspecified) registered a melting point of 125 to 128 °C. The same measure for `CC(=O)C(=O)c1ccc(NS(C)(=O)=O)c(Sc2ccc(F)cc2F)c1`: 108 to 109 °C. The result for `COc1ccc(SSC)cc1` reads 98 to 100 °C; that for `O=C1N(Cc2ccc(-c3ccccc3C(F)(F)F)o2)c2ccccc2C12COc1cc3c(cc12)OCOC3` (stereo unspecified), 124 to 126 °C; that for `O=C(O)COCCC1CCN(c2cnc(-c3ccccc3)c(-c3ccccc3)n2)CC1`, 173 to 174 °C. The result for `CCCCCCNC(=O)[C@@H](NC(=O)OC(C)(C)C)C(C)C` reads 74 to 76 °C. The compound `CCCC(C)SC(=O)c1ccc(NC(=O)NC)cc1Cl` (stereo unspecified) yielded a melting point of 89 to 95 °C. The result for `COc1ccc2[nH]cc(-c3cc4c(C(N)=O)ccnc4[nH]3)c2c1` reads over 320 °C; that for `O=C1c2cccc3cc4c([N+](=O)[O-])cccc4c(c23)C(=O)N1CCNCCCNCCN1C(=O)c2cccc3cc4c([N+](=O)[O-])cccc4c(c23)C1=O`, over 340 °C.

In turn, `CCCCCCCCc1ccc(OCC(=O)Cn2cc(C(=O)O)c3ccccc32)cc1` returned a melting point of 182 to 183 °C. The same measure for `O=C(O)CCC(=O)c1ccc(NC(=O)c2cccc(F)c2)cc1`: 239 to 241 °C. The result for `CC(=O)NCc1ccc2c(c1)N(C1CCN(CCc3cccc(F)c3)CC1)CC2` reads 161 to 162 °C; that for `COc1ccc(-c2cnc3c(n2)c(C#N)cn3S(=O)(=O)c2ccc(C)cc2)cc1OC`, 233 to 234 °C; that for `CC(C)(C)[Si](C)(C)OCCOc1cccnc1Br`, 81 °C. `CCC1CC2=CCCCC2C2CCC3(C)C(O)CCC3C12` (stereo unspecified) came in with a melting point of 155 to 157 °C. `CCOCCn1c(C(=O)C2CCN(CCC3(c4ccccc4)CCN(C(=O)c4cc(OC)c(OC)c(OC)c4)C3)CC2)nc2ccccc21` (stereo unspecified) came in with a melting point of 65 to 70 °C. Compound `CCOC(=O)C(CNC(C)=O)c1cn(C(=O)OCC)c2ccc(OC)cc12` (stereo unspecified) yielded a melting point of 88 to 90 °C. The result for `Cn1ncnc1COc1nn2c(-c3ccccc3F)nnc2cc1-c1cccc(F)c1` reads 204 to 206 °C. Compound `COc1nc2cc(Cl)c(Cl)c(NS(=O)(=O)c3ccccc3)c2nc1OC` showed a melting point of 292 to 293 °C. The compound `CC(C)Cn1c(OCc2ccccc2)noc1=O` registered a melting point of 53 to 60 °C. For `CN(C)C=CC(=O)c1ccc(-c2ccc(N(c3ccccc3)c3ccccc3)cc2)cc1`, the melting point fell in the range of 166 to 167 °C.

Compound `COc1ccc2c(c1)C(CC#N)=CCC2` returned a melting point of 48 to 50 °C. The same measure for `COC(=O)CCc1ccc(CBr)cc1`: 38 to 42 °C; for `Cn1sc(Cl)c(Cl)c1=O`: 119 to 120 °C. The same measure for `O=C(CCCN1CCC(c2ccccc2Cc2ccccc2)C1)c1ccc(F)cc1` (stereo unspecified): 126 to 128 °C. The compound `CCCOc1cc(C(=O)O)cc(S(N)(=O)=O)c1-c1ccccc1` registered a melting point of 155 to 157 °C. The same measure for `CSc1ccc(NS(=O)(=O)c2cccc3c(N(C)C)cccc23)nn1`: 188 to 190 °C. The same measure for `COCc1cc(NCc2ccccc2C)c2ccccc2n1`: 194 to 195 °C; for `COc1ccc2c(c1)c(CC(=O)OCC(=O)NCCO[N+](=O)[O-])c(C)n2C(=O)c1ccc(Cl)cc1`: 128 to 129 °C. The result for `O=C(O)[C@@H]1CCCN1C(=O)C(Sc1nc2cc(Cl)ccc2s1)c1ccccc1` (stereo partly specified) reads 160 to 161 °C. On to `Cc1nc2nc(S(=O)(=O)Cl)nn2c(C)c1Cl`, for which the melting point was 131 to 133 °C. The result for `CCCCN=C(N(CCCC)CCCC)N(CCCC)CCCC` reads 100 to 102 °C; that for `CC(C)(C)C(NC(=O)OCc1ccccc1)C(=O)O` (stereo unspecified), 96 to 99 °C. `COc1c(N2CCNC(C3CC3)C2)c(F)cc2c(=O)c(C(=O)O)cn([C@@H]3C[C@@H]3F)c12` (stereo partly specified) displayed a melting point of 136 to 139 °C.

`COc1cc2nc(N3CCN(C(=O)C=Cc4ccccn4)CC3)nc(N)c2cc1OC` displayed a melting point of 235 to 237 °C. As for `CON=C(CBr)c1ccc(Cl)cc1`, the melting point lay within 57 to 60 °C. `Cc1c(-c2ccccc2)oc2c(OCCCl)cccc2c1=O` had a melting point of 141 to 142 °C.

For the compound `Cn1cc2c(n1)SSSSS2`, the melting point was in the range of 94 to 102 °C. The result for `Cc1ncnn1-c1cc(F)ccc1C#N` reads 120 to 121 °C; that for `COc1cc(C(=O)OCCN(CCOC(=O)c2cc(OC)c(OC)c(OC)c2)CCS(=O)(=O)O)cc(OC)c1OC`, 178 to 182 °C. The result for `O=C(NC(=O)c1c(Cl)cccc1Cl)Nc1noc2ccccc12` reads 212 to 215 °C; that for `CC(=O)OC1CSC(Oc2ccc3nnn(C)c3c2)C(OC(C)=O)C1OC(C)=O` (stereo unspecified), 143 °C; that for `Cn1c(-c2ccc(Cl)c(S(N)(=O)=O)c2)csc1=Nc1ccc(O)cc1`, 274 °C. The same measure for `Cc1nc(-c2cc(C)c(OCCCc3cc(C4CC4)no3)c(C)c2)no1`: 50.5 to 51 °C.

These data come from a melting point compilation (Tetko et al.; mined from patent text by program, amines drawn as free bases though some values may be those of a salt).
